Data set [1] has as its target T1, SpCas9 (Streptococcus pyogenes serotype M1, UniProt Q99ZW2). The experiment in a line: eGFP-disruption assay in U2OS.eGFP.PEST cells. More on the design: host or cells: U2OS.eGFP.PEST. The class given is cell-based, S. pyogenes. As to the method: SpCas9 nuclease activity in eGFP-disruption assay. Approximately 200,000 U2OS.eGFP-PEST cells were nucleofected following two different methods either by nucleofecting plasmids or RNP using the SE Cell Line 4D-Nucleofector™ X Kit (Lonza) according to the manufacturer's protocol. In the plasmid nucleofection method, cells were nucleofected either with 440 ng of SpCas9 (Addgene Plasmid #43861) or 400 ng of SpCas9 along with 40 ng of sgRNA (pFYF1320 eGFP Site #1, Addgene Plasmid #47511). Cells nucleofected only with SpCas9-expressing plasmid were used as the transfection control. In the RNP nucleofection method, either […] SpCas9 or 20 pmol preformed SpCas9:gRNA (eGFP Site #1) complex were nucleofected. Approximately 20,000 transfected cells/well were plated in 4 replicates in a 96-well plate (Corning® 3904). Cells were incubated with the indicated amount of compound or DMSO for 24 h post transfection. A DMSO solution of compound (20 mM) was resuspended in the 10% FBS containing growth media and thoroughly mixed before adding to the cells. Cells were then fixed using 4% paraformaldehyde and imaged with the HCS NuclearMask™ Blue Stain (Life Technologies) as the nuclear counter-staining agent. Imaging was performed with an ImageXpress Micro automated microscope (Molecular Devices) at 10× magnification under three excitation channels (blue, green and red) acquiring nine sites per well. Images were analyzed using MetaXpress software and data were plotted using GraphPad Prism 6.
The Z′-value was calculated using the equation (1), where σ1 and σ2 are the standard deviations of DMSO control and SpCas9:gRNA control respectively. μ1 and μ2 are the mean % GFP^− cell population for DMSO control and SpCas9:gRNA control, respectively.

In data set [2] the target is T1, SpCas9. The experiment in a line: HiBiT assay in U2OS.eGFP.PEST cells. The following applies: 24 h. More on the design: host or cells: U2OS.eGFP.PEST. The data set is classed as cell-based, S. pyogenes. The procedure:
HiBiT assay. For SpCas9 expression in cells, the previously described JDS246 plasmid was used (Kleinstiver et al., 2015b). ssODN donor DNA template with the HiBiT tag was purchased as single-stranded Ultramer DNA Oligonucleotides (IDT) and resuspended to 40 μM in nuclease-free water. For the assay, 2×10^5 cells were co-transfected with 300 ng Cas9 plasmid, 75 ng sgRNA plasmid and 100 ng ssODN using the DN-100 program of Lonza 4D nucleofector according to the manufacturer's protocols. For negative controls, either the sgRNA plasmid or the ssODN was omitted. 20,000 transfected cells were plated in each well of a 96-well plate (Corning 3904). Immediately after transfection, cells were treated with varying concentrations of BRD0539 or BRD3433 and incubated at 37° C. with 5% CO2. 24 h after transfection, the cells were washed once with PBS and kept in 80 μL PBS. An equal volume of the Nano-Glo HiBiT Lytic Reagent (Promega N3030), consisting of Nano-Glo HiBiT Lytic Buffer, Nano-Glo HiBiT Lytic Substrate, and LgBiT Protein, was added according to the manufacturer's protocol, and cells were incubated for 10 min at ambient temperature with shaking at 600 rpm (Schwinn et al., 2018a). The cells were then incubated for an additional 10 min without shaking at room temperature to allow equilibration of the HiBiT and LgBiT in the lysate. The lysate was then transferred to a white plate (Corning 3990) and luminescence was measured using an Envision plate reader (Perkin-Elmer) with 1 s of integration time.
In general terms: With HiBiT, luminescence reflects the tagged protein that the partner subunit can reach.

The target of data set [3] is T1, SpCas9. The experiment in a line: mKate2-disruption assay in HEK293T cells. The class given is cell-based, S. pyogenes. The conditions noted are these: 1.5-5 μM, 24 h. The procedure: mKate2-disruption assay. Approximately 8,000 cells/well were seeded in a 96-well plate 24 h before transient transfection with 100 ng of either CgRNA (Addgene Plasmid #64955) or T1gRNA (Addgene Plasmid #62717) plasmids using Lipofectamine 2000 (Life Technologies). Transfected cells were allowed to grow in the indicated amount of small molecule or DMSO for 24 h. Cells were then fixed using 4% paraformaldehyde and imaged with the HCS NuclearMask™ Blue Stain (Life Technologies) as the nuclear counter-staining agent. Imaging was performed with an ImageXpress Micro automated microscope (Molecular Devices) at 20× magnification under two excitation channels (blue and red) with 9 acquisition sites per well. Images were analyzed using the MetaXpress software to determine the % mKate2 positive cells and data was plotted using GraphPad Prism 6. The Z′-value was calculated following the formula: Z′=1−(3(σ1+σ2))/(|μ1−μ2|) where σ1 and σ2 are the standard deviations of CgRNA transfected wells and T1gRNA transfected wells respectively. μ1 and μ2 are the mean % RFP^+ cell population for CgRNA transfected wells and T1gRNA transfected wells, respectively.

Data set [4] addresses T1, SpCas9. The experiment in a line: NHEJ assay in HEK293T cells. The class given is cell-based, S. pyogenes. The following applies: 2-10 μM, 24 h. The procedure:
NHEJ assay. Approximately 8,000 cells/well were seeded in a 96-well plate 24 h before transient transfection with a total 100 ng of DN66 (mCherry—TAG—GFP reporter) and DN78 (SpCas9 and gRNA) plasmids (1:1) using Lipofectamine 2000 (Life Technologies) (Nguyen et al., 2016b). Transfected cells were incubated with the indicated amount of small molecule or DMSO for 24 h. Cells were then fixed using 4% paraformaldehyde and imaged with the HCS NuclearMask™ Blue Stain (Life Technologies) as the nuclear counter-staining agent. Imaging was performed with an ImageXpress Micro automated microscope (Molecular Devices) at 4× magnification under three excitation channels (blue, green and red) with 9 acquisition sites per well. Images were analyzed in the MetaXpress software to determine the % NHEJ and the data were plotted using GraphPad Prism 6. The Z′-value was calculated following the formula: Z′=1−(3(σ1+σ2))/(|μ1−μ2|) where σ1 and σ2 are the standard deviations of DN66 transfected wells and (DN66+DN78) transfected wells respectively. μ1 and μ2 are the mean % GFP cell population for DN66 transfected wells and (DN66+DN78) transfected wells respectively.

Data set [5] has as its target T2, dCas9-based transcription-activation complex (Streptococcus pyogenes serotype M1, UniProt Q99ZW2, D10A, form not given).
T2 construct: "dSpCas9|Feng Zhang lab|NA"; The MS2-p65-HSF1(-GFP) effector is a separate chain recruited through MS2 aptamers in the sgRNA
The experiment in a line: dCas9-based transcription activation of HBG1 in HEK293FT cells (RT-qPCR). The class given is cell-based, S. pyogenes. The conditions noted are these: for inhibition of transcriptional activation: 20 μM; for EC50: read-out: EC50, inhibition of the transcription activation complex. As to the method:
Transcription activation experiments and quantitative RT-PCR analyses. HEK293FT cells were maintained in high glucose DMEM with glutamax (Life Technologies) and supplemented with 10% FBS (Life Technologies), 1% penicillin-streptomycin (Life Technologies) and 1 mM sodium pyruvate (Life Technologies). For transcription activation experiments, 20,000 cells/well were plated in a poly D-lysine-coated 96-well plate. The cells were transiently transfected with a 1:1:1 mass ratio of the dCas9 plasmid, MS2-P65-HSF1 effector plasmid and the sgRNA plasmid targeting the HBG1 gene or an RFP control plasmid. A total of 0.3 μg plasmid DNA was transfected using Lipofectamine 2000 (Life Technologies) according to manufacturer's protocol. Immediately after transfection, the cells were treated with an appropriate dose of the small-molecule inhibitors. A DMSO solution of compound (20 mM) was resuspended in the 10% FBS containing growth media and thoroughly mixedbefore adding to the cells. After 48 h the cells were lysed and 5 μL of the cell lysate was used to perform reverse transcription using the RevertAid RT Reverse Transcription Kit (Thermo Fischer Scientific) as described by Joung J. et al. qPCR reactions were performed to quantify RNA expression using the TaqMan probes (Life Technologies, HBG1/HBG2: Hs00361131_g1, ACTB: Hs01060665_g1) and TaqMan Fast Advanced Master Mix (Life Technologies) in 5 μL multiplexed reactions and 384-well format using the LightCycler 480 Instrument II (Roche). For each sample, four technical replicates were performed. Data were analyzed using the LightCycler 480 software (Roche) by the ΔΔCt method: Ct values for the gene of interest (HBG1) were normalized to Ct values for the housekeeping gene (ACTB), and fold-changes in the expression level of gene of interest were normalized to RFP-transfected control. The data is reported as mean±S.E.M. for technical replicates.
A general note: In qPCR the cycle at which signal appears reflects the starting amount.

Data set [6] has as its system U2OS.eGFP.PEST cells and HEK293T cells. The experiment in a line: Cell viability (ATP content). The conditions noted are these: 5-20 μM, 24 h.
The mark [7] stands for this setting: screen of structural analogs of BRD7087, 15 μM compound, 24 h, U2OS.eGFP.PEST cells, read-out: Average Inhibition activity.
[8] abbreviates: screen of structural analogs of BRD7087, 15 μM compound, 24 h, U2OS.eGFP.PEST cells, read-out: Inhibition activity Rep 1.
The mark [9] stands for this setting: screen of structural analogs of BRD7087, 15 μM compound, 24 h, U2OS.eGFP.PEST cells, read-out: Inhibition activity Rep 2.
Where [10] appears, read: screen of structural analogs of BRD7087, 15 μM compound, 24 h, U2OS.eGFP.PEST cells.

Like-named read-outs stand apart in the source and are kept apart here.

T1 sequence (Q99ZW2 whole entry): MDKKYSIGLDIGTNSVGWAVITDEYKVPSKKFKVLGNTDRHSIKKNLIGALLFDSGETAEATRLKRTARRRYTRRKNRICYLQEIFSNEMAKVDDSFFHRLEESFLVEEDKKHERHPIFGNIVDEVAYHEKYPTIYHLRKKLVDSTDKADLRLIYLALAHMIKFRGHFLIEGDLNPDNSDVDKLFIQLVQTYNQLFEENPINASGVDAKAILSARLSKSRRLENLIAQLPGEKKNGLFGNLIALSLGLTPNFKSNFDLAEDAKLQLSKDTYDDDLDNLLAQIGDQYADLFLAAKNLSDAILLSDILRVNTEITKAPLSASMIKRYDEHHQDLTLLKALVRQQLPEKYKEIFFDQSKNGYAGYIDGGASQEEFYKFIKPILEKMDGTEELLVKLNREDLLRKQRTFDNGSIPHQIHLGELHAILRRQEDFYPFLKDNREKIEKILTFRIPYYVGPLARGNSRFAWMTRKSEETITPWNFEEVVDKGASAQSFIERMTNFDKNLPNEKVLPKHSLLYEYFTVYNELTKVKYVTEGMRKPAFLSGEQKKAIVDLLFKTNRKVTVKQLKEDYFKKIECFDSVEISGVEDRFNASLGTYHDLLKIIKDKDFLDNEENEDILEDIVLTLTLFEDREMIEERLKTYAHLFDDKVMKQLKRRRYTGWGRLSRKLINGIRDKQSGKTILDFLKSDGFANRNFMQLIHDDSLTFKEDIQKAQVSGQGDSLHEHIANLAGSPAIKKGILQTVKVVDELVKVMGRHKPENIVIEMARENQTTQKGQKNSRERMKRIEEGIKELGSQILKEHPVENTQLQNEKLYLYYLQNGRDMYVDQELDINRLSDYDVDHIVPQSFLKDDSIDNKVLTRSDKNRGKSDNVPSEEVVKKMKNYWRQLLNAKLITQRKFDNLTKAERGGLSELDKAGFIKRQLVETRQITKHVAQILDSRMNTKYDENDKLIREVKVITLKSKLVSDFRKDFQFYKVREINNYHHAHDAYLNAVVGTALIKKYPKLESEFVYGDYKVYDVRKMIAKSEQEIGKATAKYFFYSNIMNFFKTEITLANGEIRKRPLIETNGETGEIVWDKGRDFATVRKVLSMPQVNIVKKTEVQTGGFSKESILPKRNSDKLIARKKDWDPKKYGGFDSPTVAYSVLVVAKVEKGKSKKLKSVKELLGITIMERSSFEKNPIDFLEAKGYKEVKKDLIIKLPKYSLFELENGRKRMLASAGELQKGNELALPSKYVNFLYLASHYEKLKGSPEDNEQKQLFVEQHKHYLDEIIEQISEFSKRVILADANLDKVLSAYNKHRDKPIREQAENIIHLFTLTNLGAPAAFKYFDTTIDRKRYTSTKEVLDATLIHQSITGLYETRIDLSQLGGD
T2 sequence (Q99ZW2 whole entry, form open, one chain of several, change not shown): as the sequence (Q99ZW2 whole entry) above

With `COc1cccc(-c2ccc3c(c2)[C@H]2[C@H](CCN2C(=O)Cc2ccncc2)[C@H](CO)N3C)c1` [BRD3433, 1-((3aS,4R,9bR)-4-(hydroxymethyl)-8-(3-methoxyphenyl)-5-methyl-2,3,3a,4,5,9b-hexahydro-1H-pyrrolo[3,2-c]quinolin-1-yl)-2-(pyridin-4-yl) ethan-1-one], the EC50 (commonly the concentration needed to bring the measured effect to its halfway point) in data set [1] (EC50, dose-dependent inhibition of SpCas9, U2OS.eGFP.PEST cells, 24 h, tested from 2.8-17.3 μM) is 9.3 µM; in data set [1] (eGFP-disruption assay, read-out: apparent EC50) it was 11 µM. The “improvement in potency over BRD7087” value in data set [1] (eGFP-disruption assay) was 1.8 fold. In addition, the values for the inhibition at 15 µM in data set [1] (setting [7]), in data set [1] (setting [8]) and in data set [1] (setting [9]) were 78.6%, 82.2% and 74.9%, respectively. The “inhibition of SpCas9 in the HiBiT assay (in words)” value in data set [2] is “dose-dependent inhibition”.

In the case of `COc1ccc(-c2ccc3c(c2)[C@H]2[C@H](CCN2Cc2ccncc2)[C@@H](CO)N3)cc1` [BRD5779, ((3aR,4S,9bR)-8-(4-Methoxyphenyl)-1-(pyridin-4-ylmethyl)-2,3,3a,4,5,9b-hexahydro-1H-pyrrolo[3,2-c]quinolin-4-yl) methanol], in data set [3], the “inhibition of SpCas9 in the mKate2 disruption assay (in words)” value is “dose-dependent inhibition”. In addition, the “inhibition of SpCas9 in the NHEJ assay (in words)” value in data set [4] is “dose-dependent inhibition”. The “inhibition of transcriptional activation” value in data set [5] is ~60%. Also, in data set [1] (U2OS.eGFP.PEST cells), the “inhibition of SpCas9 in the eGFP-disruption assay (in words)” value was “dose-dependent inhibition”. Also, the “cytotoxicity (in words)” value in data set [6] is “non-cytotoxic”.

With `CN1c2ccc(C#Cc3cccnc3)cc2[C@H]2[C@H](CCN2C(=O)Nc2cc(F)ccc2F)[C@@H]1CO` [BRD0048, (3aS,4R,9bR)—N-(2,5-difluorophenyl)-4-(hydroxymethyl)-5-methyl-8-(pyridin-3-ylethynyl)-2,3,3a,4,5,9b-hexahydro-1H-pyrrolo[3,2-c]quinoline-1-carboxamide], the EC50 in data set [5] was 9 µM. The inhibition – broadly, how much of the control response was suppressed – at 15 µM in data set [1] (setting [7]) turned out to be 76.4%; in data set [1] (setting [8]) it was 84.1%; in data set [1] (setting [9]), 68.7%.

`CN1c2ccc(C#Cc3cccnc3)cc2[C@@H]2[C@@H](CCN2C(=O)C2CCCCC2)[C@H]1CO` [BRD20322, Cyclohexyl((3aR,4S,9bS)-4-(hydroxymethyl)-5-methyl-8-(pyridin-3-ylethynyl)-2,3,3a,4,5,9b-hexahydro-1H-pyrrolo[3,2-c]quinolin-1-yl) methanone]: the “inhibition of transcriptional activation” value in data set [5] was 89%. Also, the concentration for a half-maximal effect (EC50) in data set [5] is 12.2 µM. The inhibition at 15 µM was 53.5% in data set [1] (setting [7]), 47.6% in data set [1] (setting [8]) and 59.4% in data set [1] (setting [9]).

In the case of `N#Cc1ccc(-c2ccc3c(c2)[C@H]2[C@H](CCN2C(=O)Cc2ccccc2)[C@@H](CO)N3)cc1` [BRD-K63155325], in data set [1] (setting [10]), the “Average Inhibition activity” value was determined as 57.6, the “Inhibition activity Rep 1” value is on record as 63.0 and the “Inhibition activity Rep 2” value is on record as 52.1.

(Values after US12391685B2, “Inhibitors of RNA-guided nuclease target binding and uses thereof” (THE BROAD INSTITUTE, INC., priority 2018, dated 2025).)
